Results reported in PMC5114681, “Molecular Mechanism of Action of Antimalarial Benzoisothiazolones: Species-Selective Inhibitors of the Plasmodium spp. MEP Pathway enzyme, IspD” (Scientific Reports, 2016).
“Also recorded” adds a separate entry of the source.

Columns and labels:
A. thaliana IspD = test system: A. thaliana IspD; set-up: method as in PMID 24446431, PMID 21766403, PMID 22975264; settings: known IspD inhibitors, Fig. 2; cited from earlier work
P. falciparum strain 3D7 [1] = assay: Parasite growth inhibition with and without IPP supplementation (rescue); assay type: cell-based; settings: for IPP rescue of parasite growth: 200 μM IPP supplementation
Method: (§1) Asynchronous cultures of P. falciparum strain 3D7 were diluted to 1% parasitemia and cultured at indicated concentrations of inhibitor compounds in 100 μL culture volumes. During rescue experiments, parasite growth medium was supplemented with 200 μM isopentenyl pyrophosphate (IPP; Echelon Biosciences). After 72 hours, parasite growth was quantified using PicoGreen dye (Invitrogen) to measure DNA content as previously described. PicoGreen fluorescence was measured (485 nm excitation/528 nm emission) in a POLARStar Omega microplate reader (BMG Labtech).

MEP pathway = assay: MEP metabolite profiling (LC-MS/MS of DOXP and MEcPP) in treated parasites; settings: 10 hours; for MEcPP levels compared to untreated parasites: 3 μM 8 or 5 μM FSM
P. vivax IspD = test system: P. vivax IspD; set-up: method as in PMID 24446431, PMID 21766403, PMID 22975264; settings: known IspD inhibitors, Fig. 2; cited from earlier work
P. falciparum IspD = test system: P. falciparum IspD; set-up: method as in PMID 26783558, PMID 25367906, PMID 24247137, PMID 25754494; settings: known IspD inhibitors, Fig. 2; cited from earlier work
PfIspD = PfIspD (Plasmodium falciparum, UniProt Q8I273); assay: biochemical; settings: mean and SEM; n ≥ 3
Method: (§2) Phosphate released by IspD was quantified using the EnzChek Phosphate Assay Kit (Invitrogen, Life Technologies), as previously described. 2-Amino-6-mercapto-7-methylpurine riboside (MESG) and purine nucleoside phosphorylase (PNP) were diluted and stored according to the manufacturer’s instructions. Final concentrations of reagents were as follows: 100 mM NaCl, 25 mM Tris pH 7.5, 7.5 mM MgCl2, 1 U/ml PNP, 0.1 U/mL yeast inorganic pyrophosphatase (New England Biolabs). […] Reactions were performed in 50 μL final volumes in 96-well clear flat bottom plates. In general, enzymes, buffers, and inhibitors were pre-warmed approximately 15 minutes at 37 °C, and reactions were then initiated by addition of the MEP substrate. […] Assays using E. coli IspD used 7.5 nM EcIspD-wt or 75 nM EcIspD-A14C. Absorbance at 360 nm was measured over time on a BMG POLARStar plate reader, preheated to 37 °C. Nonlinear regression analysis was performed using GraphPad Prism software. […] Slopes of changing absorbance values were converted to (μM MEP) (μM enzyme)^−1 s^−1 using a phosphate standard curve.

PvIspD = PvIspD (Plasmodium vivax, UniProt A5K9U5); assay: IspD enzyme assay (EnzChek phosphate release), recombinant PvIspD; assay type: biochemical, P. vivax
Method: as §2

P. falciparum strain 3D7 [2] = assay: Parasite sensitivity assay (PicoGreen, 72 hours), strain 3D7; assay type: cell-based; settings: Plasmodium falciparum, mean and SEM, n ≥ 3, read-out: (3D7) EC50, P. falciparum growth in culture
Method: (§3) Unless otherwise specified, P. falciparum parasites were cultured as previously described, in a 2% suspension of human erythrocytes in RPMI-1640 medium (Sigma Aldrich) supplemented with 27 mM sodium bicarbonate, 11 mM glucose, 5 mM HEPES, 1 mM sodium pyruvate, 0.37 mM hypoxanthine, 0.01 mM thymidine, 10 μg ml^−1 gentamicin and 0.5% Albumax (Life Technologies). Cultures were maintained in 5% O2/5% CO2/90% N2 at 37 °C. Parasite growth was monitored by microscopy of Giemsa-stained parasites. 3D7 strain parasites were obtained from the Malaria Research and Reference Reagent Resource Center, ATCC, Manassas, Virginia. D6 and 7G8 strains were obtained through BEI Resources Repository, NIAID, NIH: Plasmodium falciparum, Strain D6, MRA-285, contributed by D.E. Kyle; Plasmodium falciparum, Strain 7G8, MRA-152, contributed by David Walliker. The IPC 5202 strain was provided by the Malaria Research and Reference Reagent Resource Center (MR4) for distribution by BEI Resources NIAID, NIH: Plasmodium falciparum, Strain IPC 5202, also known as CAM3.IR539T; MRA-1240, contributed by Didier Ménard.
as §1

P. falciparum strain D6 = assay: Parasite sensitivity assay, strain D6 (mefloquine-resistant); assay type: cell-based; settings: Plasmodium falciparum, mean and SEM, read-out: Whole Cell Growth Inhibition EC50
Method: as §3, with “The IPC 5202 strain was provided by the Malaria Research and Reference Reagent Resource Center (MR4) for distribution by BEI Resources NIAID, NIH: Plasmodium falciparum, Strain IPC 5202, also known as CAM3.IR539T; MRA-1240, contributed by Didier Ménard.” left out
as §1, with “During rescue experiments, parasite growth medium was supplemented with 200 μM isopentenyl pyrophosphate (IPP; Echelon Biosciences).” left out

P. falciparum strain 7G8 = assay: Parasite sensitivity assay, strain 7G8 (multidrug (chloroquine)-resistant); assay type: cell-based; settings: Plasmodium falciparum, mean and SEM, read-out: Whole Cell Growth Inhibition EC50
Method: as §3, with “The IPC 5202 strain was provided by the Malaria Research and Reference Reagent Resource Center (MR4) for distribution by BEI Resources NIAID, NIH: Plasmodium falciparum, Strain IPC 5202, also known as CAM3.IR539T; MRA-1240, contributed by Didier Ménard.” left out
as §1, with “During rescue experiments, parasite growth medium was supplemented with 200 μM isopentenyl pyrophosphate (IPP; Echelon Biosciences).” left out

[3] = test system: P. falciparum strain IPC 5202; assay: Parasite sensitivity assay, strain IPC 5202 (artemisinin-resistant); assay type: cell-based; settings: Plasmodium falciparum, mean and SEM, read-out: Whole Cell Growth Inhibition EC50
Method: as §3, with “The IPC 5202 strain was provided by the Malaria Research and Reference Reagent Resource Center (MR4) for distribution by BEI Resources NIAID, NIH: Plasmodium falciparum, Strain IPC 5202, also known as CAM3.IR539T; MRA-1240, contributed by Didier Ménard.” left out
as §1, with “During rescue experiments, parasite growth medium was supplemented with 200 μM isopentenyl pyrophosphate (IPP; Echelon Biosciences).” left out

PfIspD-C202A = assay: IspD enzyme assay, recombinant PfIspD-C202A mutant; assay type: biochemical, P. falciparum; settings: prolonged (50 min.) incubation
Method: as §2

EcIspD-wt = molecular target: T1, EcIspD-wt (Escherichia coli, UniProt Q46893); assay: IspD enzyme assay, recombinant EcIspD-wt; assay type: biochemical, E. coli
T1 construct: 6His; made in house; host or cells: Artic Express (DE3) RIL E. coli
Method: as §2

EcIspD-A14C = molecular target: T2, EcIspD-A14C (Escherichia coli, UniProt Q46893, A14C); assay: IspD enzyme assay, recombinant EcIspD-A14C mutant; assay type: biochemical, E. coli
T2 construct: Amplicons containing the entire E. coli IspD gene were generated; 6His (N); made in house; host or cells: Artic Express (DE3) RIL E. coli
Method: as §2

[4] = Calculated ClogD and aqueous solubility (AstraZeneca algorithms); settings: predicted values

Chain of PvIspD (A5K9U5 entry or part of it): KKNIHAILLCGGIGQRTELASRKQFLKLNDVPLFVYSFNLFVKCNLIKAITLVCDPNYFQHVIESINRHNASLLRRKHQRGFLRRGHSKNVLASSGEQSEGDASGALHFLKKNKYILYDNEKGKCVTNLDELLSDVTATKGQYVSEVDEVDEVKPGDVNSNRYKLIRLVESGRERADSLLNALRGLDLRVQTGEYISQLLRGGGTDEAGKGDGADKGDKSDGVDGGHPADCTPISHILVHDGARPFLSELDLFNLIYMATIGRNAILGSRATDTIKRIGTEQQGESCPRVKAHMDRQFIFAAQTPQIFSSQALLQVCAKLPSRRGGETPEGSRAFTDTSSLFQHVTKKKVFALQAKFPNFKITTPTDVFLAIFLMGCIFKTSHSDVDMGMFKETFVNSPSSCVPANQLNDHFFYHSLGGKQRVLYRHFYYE
Chain of PfIspD (Q8I273 entry or part of it): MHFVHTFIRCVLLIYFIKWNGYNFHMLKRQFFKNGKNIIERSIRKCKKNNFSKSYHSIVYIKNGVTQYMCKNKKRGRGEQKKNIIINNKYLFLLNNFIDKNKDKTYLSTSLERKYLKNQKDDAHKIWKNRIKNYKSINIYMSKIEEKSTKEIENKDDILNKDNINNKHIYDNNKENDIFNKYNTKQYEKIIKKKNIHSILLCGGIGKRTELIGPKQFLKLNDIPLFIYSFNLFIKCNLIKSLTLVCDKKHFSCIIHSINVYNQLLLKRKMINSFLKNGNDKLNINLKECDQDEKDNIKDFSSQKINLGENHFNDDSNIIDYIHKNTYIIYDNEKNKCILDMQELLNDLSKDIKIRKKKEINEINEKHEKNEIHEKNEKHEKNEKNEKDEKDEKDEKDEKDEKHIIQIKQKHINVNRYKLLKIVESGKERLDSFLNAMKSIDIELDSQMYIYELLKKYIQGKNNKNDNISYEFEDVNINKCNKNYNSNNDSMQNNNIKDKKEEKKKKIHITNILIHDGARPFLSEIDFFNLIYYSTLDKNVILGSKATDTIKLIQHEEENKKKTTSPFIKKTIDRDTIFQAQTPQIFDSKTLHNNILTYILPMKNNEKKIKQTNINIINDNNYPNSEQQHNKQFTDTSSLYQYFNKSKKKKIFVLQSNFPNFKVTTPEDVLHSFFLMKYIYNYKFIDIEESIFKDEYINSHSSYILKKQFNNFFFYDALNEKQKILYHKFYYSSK
T2 sequence (Q46893 whole entry A14C): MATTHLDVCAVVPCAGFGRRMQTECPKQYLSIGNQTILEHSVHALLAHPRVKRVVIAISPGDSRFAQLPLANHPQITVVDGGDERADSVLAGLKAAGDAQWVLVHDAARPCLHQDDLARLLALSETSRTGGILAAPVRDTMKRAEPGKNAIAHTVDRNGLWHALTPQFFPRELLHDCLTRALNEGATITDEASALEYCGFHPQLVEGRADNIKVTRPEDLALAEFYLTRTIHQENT
T1 sequence (Q46893 whole entry): as the sequence (Q46893 whole entry A14C) above, with C14A counted along it

SMILES | IC50 (A. thaliana IspD) [nM] | IC50 (PfIspD) [nM] | IC50 (PvIspD) [nM] | EC50 (P. falciparum strain 3D7 [2]) [nM] | also measured
Oc1c(Cc2ccccc2)c(Cl)cc2ncnn12 [3a] | 140 | – | – | – | –
N#Cc1cnn2c(O)c(Cc3ccccc3)c(Cl)cc12 [3b] | 35 | – | – | – | –
O=CN(O)CCCP(=O)(O)O [FSM, fosmidomycin, reference compound] | – | – | – | – | IPP rescue of parasite growth (P. falciparum strain 3D7 [1]): rescue; MEcPP levels compared to untreated parasites (MEP pathway): Significant decreases
Oc1c(Br)cc(Br)cc1-c1[nH]c(Br)c(Br)c1Br [compound 1] | 13000 | – | – | – | IC50 (P. vivax IspD): 48000 nM
COc1ccc2nc(NC(=O)c3cc(-c4ccccc4O)n[nH]3)sc2c1 [compound 2] | 1800 | – | – | – | –
O=C(O)[C@@H]1Cc2c([nH]c3ccccc23)[C@@H](c2ccc(Cl)cc2Cl)N1 [compound 4, 1R,3S-MMV008138] | – | – | – | – | IC50 (P. falciparum IspD): 47 nM
Cc1ccc(-n2sc3ccccc3c2=O)cc1S(=O)(=O)N1CCOCC1 [compound 7] | – | 450 ± 79 | 45 ± 20 | 4300 ± 180 | –
COc1ccc(-c2cccc(-n3sc4ccccc4c3=O)c2)cc1 [compound 8, 2-(4’-methoxy-[1,1’-biphenyl]-3-yl)benzo[d]isothiazol-3(2H)-one] | – | – | – | – | EC50 (P. falciparum strain D6): 800 ± 120 nM; EC50 (P. falciparum strain 7G8): 1020 ± 250 nM; EC50 [3]: 1380 ± 190 nM; decrease in sensitivity, PfIspD-C202A versus PfIspD-wt (PfIspD-C202A): 6 fold; inhibition of recombinant EcIspD (wild type) (EcIspD-wt): highly resistant to inhibition; IC50 (EcIspD-A14C): 440 ± 48 nM; IPP rescue of parasite growth (P. falciparum strain 3D7 [1]): did not observe rescue; also recorded: No rescue was observed; EC50 (P. falciparum strain 3D7 [1]; Plasmodium falciparum, 3D7, mean and SEM, n ≥ 3): 980 ± 240 nM; DOXP levels compared to untreated parasites (MEP pathway): not affected; MEcPP levels compared to untreated parasites (MEP pathway): Significant decreases
O=c1c2ccccc2sn1-c1cccc(-c2ccc(Cl)cc2)c1 [compound 9, 2-(4’-chloro-[1,1’-biphenyl]-3-yl)benzo[d]isothiazol-3(2H)-one] | – | 73 ± 20 | 57 ± 13 | 1100 ± 160 | –
O=c1c2ccccc2sn1-c1cccc(-c2ccc(C(F)(F)F)cc2)c1 [compound 10, 2-(4’-(trifluoromethyl)-[1,1’-biphenyl]-3-yl)benzo[d]isothiazol-3(2H)-one] | – | 270 ± 15 | 41 ± 18 | 650 ± 21 | –
CN1CCN(Cc2ccc(-c3cccc(-n4sc5ccccc5c4=O)c3)cc2)CC1 [compound 11, 2-(4’-((4-methylpiperazin-1-yl)methyl)-[1,1’-biphenyl]-3-yl)benzo[d]isothiazol-3(2H)-one] | – | 440 ± 75 | 62 ± 26 | 420 ± 6 | increase in predicted aqueous solubility compared to 9 [4]: 100 fold
O=c1c2ccccc2sn1-c1cccc(-c2ccc(CN3CCC(F)CC3)cc2)c1 [compound 12, 2-(4’-((4-fluoropiperidin-1-yl)methyl)-[1,1’-biphenyl]-3-yl)benzo[d]isothiazol-3(2H)-one] | – | 860 ± 110 | 240 ± 100 | 320 ± 92 | –
O=c1c2ccccc2sn1-c1cccc(-c2ccc(CN3CCOCC3)cc2)c1 [compound 13, 2-(4’-(morpholinomethyl)-[1,1’-biphenyl]-3-yl)benzo[d]isothiazol-3(2H)-one] | – | 400 ± 82 | 50 ± 16 | 410 ± 82 | –
